The record followed here is patent US10048562B2, “Electrophoretic fluid” (Merck Patent GmbH, priority 2012, dated 2018).

The nature of the series: Saturation of dye in decane (solubility). As to conditions: saturated solution in decane. Type of series: physicochemical.
Turning to `CCCCCCCCN(CCCCCCCC)c1ccc(/N=N/c2ccc([N+](=O)[O-])cc2)c(C)c1` [Dye 8, (E)-3-Methyl-4-((4-nitrophenyl)diazenyl)-N,N-dioctylaniline], the “Saturation wt % in decane” value was found to be 10.50 wt %. Consider `CCCCCCCCCCCCCCc1ccc(/N=N/c2c(C)c(C#N)c(=O)n(CC(CC)CCCC)c2O)cc1` (stereo not drawn) [Dye 5, (E)-1-(2-Ethylhexyl)-6-hydroxy-4-methyl-2-oxo-5-((4-tetradecylphenyl)diazenyl)-1,2-dihydropyridine-3-carbonitrile], for which the “Saturation wt % in decane” value was 1.03 wt %. Consider `CCCCCCCCN(CCCCCCCC)c1ccc(/N=N/c2snc(C)c2C#N)c(NC(C)=O)c1` [Dye 4, N-(2-((4-Cyano-3-methylisothiazol-5-yl)diazenyl)-5-(dioctylamino)phenyl)acetamide], for which the “Saturation wt % in decane” value amounted to 0.19 wt %.

For the molecule `CCCCCCCCCCCCCCCCCCN(CCCCCCCCCCCCCCCCCC)c1cc(NC(C)=O)c(/N=N/c2c(C#N)cc([N+](=O)[O-])cc2C#N)cc1OC` [Dye 1], the “Saturation wt % in decane” value worked out at 0.003 wt %. For `CCCCc1ccc(/N=N/c2ccc(N(CCCC)CCCC)cc2)cc1` [Dye 7] the value was 9.95 wt %. For `CCCCCCCCCCCCCCc1ccc(/N=N/c2c(C)cc(=O)n(CC(CC)CCCC)c2O)cc1` (stereo not drawn) [Dye 6, (E)-1-(2-ethylhexyl)-6-hydroxy-4-methyl-5-((4-tetradecylphenyl)diazenyl)pyridin-2(1H)-one] the value was 3.72 wt %.
